What follows are compounds tested against T1, RIPK2 enzyme (Homo sapiens, UniProt O43353) (assay: RIPK2 inhibition (ADP-Glo Kinase Assay)). Conditions: RIPK2 5 nM, ATP 150 μM, MBP substrate, read-out: RIPK2 IC50.
T1 construct: purchased Carna 09-128
T1 sequence (O43353 1-299 limits assumed): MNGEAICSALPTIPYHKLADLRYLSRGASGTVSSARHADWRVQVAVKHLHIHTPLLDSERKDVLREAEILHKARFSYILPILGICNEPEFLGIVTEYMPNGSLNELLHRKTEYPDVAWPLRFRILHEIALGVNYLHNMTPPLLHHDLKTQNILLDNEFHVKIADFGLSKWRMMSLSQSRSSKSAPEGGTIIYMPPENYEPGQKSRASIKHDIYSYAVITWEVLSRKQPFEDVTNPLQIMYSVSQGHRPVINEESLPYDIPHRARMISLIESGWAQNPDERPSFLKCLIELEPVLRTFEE
Type: biochemical
Summary of the method: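 Human RIPK2 (5 nM) preincubated with compound 30 min at room temperature in 50 mM HEPES pH 7.5, 10 mM MgCl2, 2 mM DTT, 1 mM EGTA, 0.01% Brij-35, 0.05% BSA; native swine MBP as substrate. ADP formed quantified by ADP-Glo luminescence; percent inhibition relative to DMSO and no-enzyme controls.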
Work on `Cc1cc(CC(=O)Nc2noc(C(C)(C)C)n2)ccc1Oc1ncnc2ccc(OC3CCNCC3)cc12` [Compound 183, N-(5-(tert-butyl)-1,2,4-oxadiazol-3-yl)-2-(3-methyl-4-((6-(piperidin-4-yloxy)quinazolin-4-yl)oxy)phenyl) acetamide] yielded an IC50 of less than 2.5 nM.
For `Cc1c(Oc2ccnc3ccc(S(=O)(=O)N(C)CCO)cc23)ccc(CC(=O)Nc2cnn(C(C)(C)C)c2)c1F` [Compound 275, N-(1-(tert-butyl)-1H-pyrazol-4-yl)-2-(2-fluoro-4-((6-(N-(2-hydroxyethyl)-N-methylsulfamoyl)quinolin-4-yl)oxy)-3-methylphenyl)acetamide], the IC50 was less than 2.5 nM.
In the case of `Cc1cc(CC(=O)Nc2cnn(C(C)(C)C)c2)c(F)cc1Oc1ccnc2ccc(C(=O)NCC3COC3)cc12` [Compound 391, 4-(4-(2-((1-(tert-butyl)-1H-pyrazol-4-yl)amino)-2-oxoethyl)-5-fluoro-2-methyl-phenoxy)-N-(oxetan-3-ylmethyl) quinoline-6-carboxamide], the IC50 is reported as less than 2.5 nM.
`Cc1cc(CC(=O)Nc2cc(C(C)(C)C)cnn2)ccc1Oc1ncnc2ccc(F)cc12` [Compound 55, N-(5-(tert-butyl)pyridazin-3-yl)-2-(4-((6-fluoroquinazolin-4-yl)oxy)-3-methylphenyl) acetamide] gave an IC50 of 24.5 nM.
In the case of `Cc1c(Oc2ccnc3ccc(C(=O)N4CCC(O)C4)cc23)ccc(CC(=O)Nc2cnn(C(C)(C)C)c2)c1F` (single isomer, unassigned) [Compound 352, N-(1-(tert-butyl)-1H-pyrazol-4-yl)-2-(2-fluoro-4-((6-(3-hydroxy-pyrrolidine-1-carbonyl)quinolin-4-yl)oxy)-3-methyl-phenyl) acetamide], the IC50 is reported as less than 2.5 nM.
`CCn1nc(NC(=O)Cc2ccc(Oc3ccnc4ccc(S(C)(=O)=O)cc34)c(C)c2)cc1C(C)(C)C` [Compound 232, N-(5-(tert-butyl)-1-ethyl-1H-pyrazol-3-yl)-2-(3-methyl-4-((6-(methylsulfonyl)quinolin-4-yl)oxy)phenyl)acetamide] showed an IC50 of less than 2.5 nM.
With `Cc1c(Oc2ccnc3ccc(N4CCCS4(=O)=O)cc23)ccc(CC(=O)Nc2cnn(C(C)(C)C)c2)c1F` [Compound 279, N-(1-(tert-butyl)-1H-pyrazol-4-yl)-2-(4-((6-(1,1-dioxidoisothiazolidin-2-yl)quinolin-4-yl)oxy)-2-fluoro-3-methylphenyl) acetamide] the IC50 was less than 2.5 nM.
`COc1cc2nccc(Oc3ccc(CC(=O)Nc4cnn(C(C)(C)C)c4)c(F)c3)c2cc1S(C)(=O)=O` [Compound 39, N-(1-(tert-butyl)-1H-pyrazol-4-yl)-2-(2-fluoro-4-((7-methoxy-6-(methylsulfonyl)quinolin-4-yl)oxy)phenyl)acetamide] gave an IC50 of less than 2.5 nM.
Work on `Cc1c(Oc2ccnc3ccc(N4CCOC4=O)cc23)ccc(CC(=O)Nc2cnn(C(C)(C)C)c2)c1F` [Compound 298, N-(1-(tert-butyl)-1H-pyrazol-4-yl)-2-(2-fluoro-3-methyl-4-((6-(2-oxooxazolidin-3-yl)quinolin-4-yl)oxy)phenyl) acetamide] yielded an IC50 of less than 2.5 nM.
`Cc1c(Oc2ccnc3ccc(S(=O)(=O)C4CNC4)cc23)ccc(CC(=O)Nc2cnn(C(C)(C)C)c2)c1F` [Compound 315, 2-(4-((6-(azetidin-3-ylsulfonyl)quinolin-4-yl)oxy)-2-fluoro-3-methylphenyl)-N-(1-(tert-butyl)-1H-pyrazol-4-yl)acetamide] gave an IC50 of less than 2.5 nM.
Compound `CCNC(=O)c1ccc2nccc(Oc3cc(F)c(CC(=O)Nc4cnn(C(C)(C)C)c4)cc3C)c2c1` [Compound 363, 4-(4-(2-((1-(tert-butyl)-1H-pyrazol-4-yl)amino)-2-oxoethyl)-5-fluoro-2-methyl-phenoxy)-N-ethyl-quinoline-6-carboxamide] has an IC50 of less than 2.5 nM.
`Cc1c(Oc2ncnc3ccc(OC4CCN(C)CC4)cc23)ccc(CC(=O)Nc2cc(C(C)(C)C)n[nH]2)c1F` [Compound 186, N-(5-(tert-butyl)-1H-pyrazol-3-yl)-2-(2-fluoro-3-methyl-4-((6-((1-methyl-piperidin-4-yl)oxy)quinazolin-4-yl)oxy)phenyl) acetamide] showed an IC50 of less than 2.5 nM.
For `Cc1c(Oc2ccnc3ccc(C(=O)N4C[C@@H](C)N[C@@H](C)C4)cc23)ccc(CC(=O)Nc2cnn(C(C)(C)C)c2)c1F` [Compound 385, N-(1-(tert-butyl)-1H-pyrazol-4-yl)-2-(4-((6-((3R,5S)-3,5-dimethyl-piperazine-1-carbonyl)quinolin-4-yl)oxy)-2-fluoro-3-methylphenyl) acetamide], the IC50 was less than 2.5 nM.
`COc1ccc2ncnc(Oc3ccc(CC(=O)Nc4cc(C(C)(C)C)ncn4)c(F)c3)c2c1` [Compound 32, N-(6-(tert-butyl)pyrimidin-4-yl)-2-(2-fluoro-4-((6-methoxyquinazolin-4-yl)oxy)phenyl)acetamide] gave an IC50 of 13.7 nM.
Work on `Cc1cc(CC(=O)Nc2cnn(C(C)(C)C)c2)ccc1Oc1ccnc2ccc(CN3CCNCC3)cc12` [Compound 252, N-(1-(tert-butyl)-1H-pyrazol-4-yl)-2-(3-methyl-4-((6-(piperazin-1-ylmethyl)quinolin-4-yl)oxy)phenyl)acetamide] yielded an IC50 of less than 2.5 nM.
For `Cc1cc(CC(=O)Nc2cnn(C(C)(C)C)c2)ccc1Oc1ccnc2ccc(NS(C)(=O)=O)cc12` [Compound 264, N-(1-(tert-butyl)-1H-pyrazol-4-yl)-2-(3-methyl-4-((6-(methylsulfonamido)quinolin-4-yl)oxy)phenyl) acetamide], the IC50 was less than 2.5 nM.
`Cc1cc(CC(=O)Nc2cnn(C(C)(C)C)c2)c(F)cc1Oc1ccnc2ccc(C(=O)NC3CC(C#N)C3)cc12` (single isomer, unassigned) [Compound 395, 4-(4-(2-((1-(tert-butyl)-1H-pyrazol-4-yl)amino)-2-oxoethyl)-5-fluoro-2-methyl-phenoxy)-N-(-3-cyano-cyclobutyl) quinoline-6-carboxamide] gave an IC50 of less than 2.5 nM.
`CN1CCC(S(=O)(=O)c2ccc3nccc(Oc4ccc(CC(=O)Nc5cnn(C(C)(C)C)c5)c(F)c4)c3c2)CC1` [Compound 125, N-(1-(tert-butyl)-1H-pyrazol-4-yl)-2-(2-fluoro-4-((6-((1-methylpiperidin-4-yl)sulfonyl)quinolin-4-yl)oxy)phenyl)acetamide] showed an IC50 of less than 2.5 nM.
In the case of `CC(C)(C)n1cc(NC(=O)Cc2ncc(Oc3ncnc4ccc(O[C@H]5CCOC5)cc34)cc2F)cn1` [Compound 64, (S)-N-(1-(tert-butyl)-1H-pyrazol-4-yl)-2-(3-fluoro-5-((6-((tetrahydrofuran-3-yl)oxy)quinazolin-4-yl)oxy)pyridin-2-yl)acetamide], the IC50 is reported as 67.5 nM.
For `Cc1cc(CC(=O)Nc2cnn(C(C)(C)C)c2)c(F)cc1Oc1ccnc2ccc(C(=O)N3[C@H](C)CCC[C@@H]3C)cc12` [Compound 450, N-(1-(tert-butyl)-1H-pyrazol-4-yl)-2-(4-((6-((2S,6R)-2,6-dimethylpiperidine-1-carbonyl)quinolin-4-yl)oxy)-2-fluoro-5-methylphenyl)acetamide], the IC50 was less than 2.5 nM.
With `CN1CCC(Oc2ccc3ncnc(Oc4ccc(CC(=O)Nc5cnn(C(C)(C)C)c5)c(F)c4)c3c2)CC1` [Compound 19, N-(1-(tert-butyl)-1H-pyrazol-4-yl)-2-(2-fluoro-4-((6-((1-methyl-piperidin-4-yl)oxy)quinazolin-4-yl)oxy)phenyl) acetamide] the IC50 was 4.2 nM.
Work on `CC(C)(C)n1cc(NC(=O)Cc2ccc(Oc3ccnc4ccc(S(=O)(=O)N5CCNCC5)cc34)cc2F)cn1` [Compound 128, N-(1-(tert-butyl)-1H-pyrazol-4-yl)-2-(2-fluoro-4-((6-(piperazin-1-ylsulfonyl)quinolin-4-yl)oxy)phenyl)acetamide] yielded an IC50 of less than 2.5 nM.
Work on `Cc1c(Oc2ccnc3ccc(S(=O)(=O)C4CCOCC4)cc23)ccc(CC(=O)Nc2cnn(C(C)(C)C)c2)c1F` [Compound 249, N-(1-(tert-butyl)-1H-pyrazol-4-yl)-2-(2-fluoro-3-methyl-4-((6-((tetrahydro-2H-pyran-4-yl)sulfonyl)quinolin-4-yl)oxy)phenyl)acetamide] yielded an IC50 of less than 2.5 nM.
`Cc1cc(CC(=O)Nc2cnn(C(C)(C)C)c2)c(F)cc1Oc1ccnc2ccc(-c3cccnn3)cc12` [Compound 426, N-(1-(tert-butyl)-1H-pyrazol-4-yl)-2-(2-fluoro-5-methyl-4-((6-(pyridazin-3-yl)quinolin-4-yl)oxy)phenyl)acetamide] showed an IC50 of less than 2.5 nM.
In the case of `COc1ccc2ncnc(Oc3ccc(CC(=O)Nc4cc(C5(C(F)(F)F)CC5)ccn4)c(F)c3)c2c1` [Compound 34, 2-(2-fluoro-4-((6-methoxyquinazolin-4-yl)oxy)phenyl)-N-(4-(1-(trifluoromethyl)cyclopropyl)pyridin-2-yl)acetamide], the IC50 is reported as 33.3 nM.
With `CC(C)(C)n1cc(NC(=O)Cc2ncc(Oc3ncnc4ccc(O[C@@H]5CCOC5)cc34)cc2F)cn1` [Compound 63, (R)-N-(1-(tert-butyl)-1H-pyrazol-4-yl)-2-(3-fluoro-5-((6-((tetrahydrofuran-3-yl)oxy)quinazolin-4-yl)oxy)pyridin-2-yl)acetamide] the IC50 was 37.3 nM.
In the case of `Cc1c(Oc2ccnc3ccc(C(=O)NCC(F)(F)F)cc23)ccc(CC(=O)Nc2cnn(C(C)(C)C)c2)c1F` [Compound 337, 4-(4-(2-((1-(tert-butyl)-1H-pyrazol-4-yl)amino)-2-oxoethyl)-3-fluoro-2-methyl-phenoxy)-N-(2,2,2-trifluoroethyl) quinoline-6-carboxamide], the IC50 is reported as less than 2.5 nM.
Compound `CC(C)(C)n1cc(NC(=O)Cc2ccc(Oc3ccnc4ccc(S(C)(=N)=O)cc34)c(Cl)c2)cn1` (single isomer, unassigned) [Compound 196, N-(1-(tert-butyl)-1H-pyrazol-4-yl)-2-(3-chloro-4-((6-(S-methylsulfonimidoyl)quinolin-4-yl)oxy)phenyl)acetamide] has an IC50 of less than 2.5 nM.
Work on `Cc1cc(CC(=O)Nc2cnn(C(C)(C)C)c2)c(F)cc1Oc1ccnc2ccc(-c3nnccc3C)cc12` [Compound 460, N-(1-(tert-butyl)-1H-pyrazol-4-yl)-2-(2-fluoro-5-methyl-4-((6-(4-methylpyridazin-3-yl)quinolin-4-yl)oxy)phenyl)acetamide] yielded an IC50 of less than 2.5 nM.
